Laboratory results reported in patent US20250101378A1, “CULTURE MEDIUM AND CULTURE METHOD FOR MAMMARY EPITHELIAL CELLS, AND USE OF MAMMARY EPITHELIAL CELLS” (PRECEDO PHARMACEUTICALS CO., LTD, priority 2022, published 2025).

What was measured:
Type in all cases: cell-based, human
[1] = system: primary breast cancer cells isolated from breast tumor tissue; experiment: Screening of additive factors in the culture medium of primary mammary epithelial cells (cell count after 14 days); parameters: key to Level of promoting proliferation: +: compared with the Basal Medium, the culture medium added with the additive(s) has the effect of promoting the proliferation of at least three cases of primary breast cancer cells isolated from breast tumor tissue; ++: the number of “+” indicates the degree of proliferation promotion; ++++: the number of “+” indicates the degree of proliferation promotion; −: the culture medium added with the additive(s) has the effect of inhibiting the proliferation of at least two cases of primary breast cancer cells isolated from breast tumor tissue; the culture medium added with the additive(s) has no significant effect on the proliferation of at least three cases of primary breast cancer cells isolated from breast tumor tissue; conditions: 14 days of culture; for Level of promoting proliferation: additive added to Basal Medium at the concentration of Table 1, cell count compared with Basal Medium, five breast tumor samples; for promotion of growth of primary breast tumor cells (in words): additive added to Basal Medium, compared with Basal Medium
Experimental: First, a basal culture medium based on WO 2021/088119 was prepared. To a commercially available DMEM/F-12 culture medium, GlutaMAX-I (manufactured by Thermo Fisher Scientific) was added at the concentration specified in the instruction manual (1:100 dilution), human insulin (Sigma) was added at a final concentration of 10 μg/ml, ROCK inhibitor Y27632 (Sigma) was added at a final concentration of 10 μM, penicillin-streptomycin (Thermo Fisher Scientific) was added at a 1:100 dilution, human amphiregulin (manufactured by R&D systems) was added at a final concentration of 20 ng/ml, epidermal growth factor (EGF, manufactured by Peprotech) was added at a final concentration of 10 ng/ml, B27 (Thermo Fisher Scientific) was added at a 1:50 dilution, human neuregulin 1 (Peprotech) was added at a final concentration of 10 nM, fibroblast growth factor 7 (FGF7, R&D systems) was added at a final concentration of 10 ng/ml), and TGFβ1 inhibitor A8301 (manufactured by MCE) was added at a final concentration of 500 nM, to prepare a basal culture medium for primary mammary epithelial cells, hereinafter referred to as “Basal Medium”.
Then, different types of additives (Table 1) were added to the Basal Medium to prepare culture mediums for mammary epithelial cells containing different additives. The culture medium with different components was added to a 24-well plate coated with extracellular matrix gel at a volume of 500 μl/well, and 3 replicates were prepared for each culture medium formulation. The breast cancer cells (1 #) isolated from the breast tumor tissue in Example (1) were inoculated at a cell density of 3×10^4 cells/well in a 24-well culture plate coated with extracellular matrix gel, and cultured at 37° C. and 5% CO2 concentration using different culture medium formulations, respectively. The culture medium was replaced every 3 days after the start of culture. After 14 days of culture, the cells were counted. Basal Medium without addition of any additive shown in Table 1 was used as an experimental control.
The tumor cells isolated from the rest four cases of breast tumor tissue samples were also cultured and counted in the same manner as above.

[2] = system: primary breast cancer cells (2 #); experiment: Optimization of the concentration of additives in the culture medium (cell count on day 14, FIGS. 1A-1G); conditions: graded concentrations added to Formulations 1-7, 96-well plate, day 14 cell count
Experimental: The following 7 different formulations of culture mediums were further prepared: • Formulation 1: the Basal Medium was added with 1:100-fold diluted MEM-NEAA, 1 mM sodium pyruvate, 50 ng/ml IGF1, 20 ng/ml bFGF, 10 ng/ml TNF-α and 20 ng/ml FGF10; • Formulation 2: the Basal Medium was added with 10 nM β-estradiol, 1 mM sodium pyruvate, 50 ng/ml IGF1, 20 ng/ml bFGF, 10 ng/ml TNF-α and 20 ng/ml of FGF10; • Formulation 3: the Basal Medium was added with 10 nM β-estradiol, 1:100-fold diluted MEM-NEAA, 50 ng/ml IGF1, 20 ng/ml bFGF, and 10 ng/ml TNF-α and 20 ng/ml FGF10; • Formulation 4: the Basal Medium was added with 10 nM β-estradiol, 1:100-fold diluted MEM-NEAA, 1 mM sodium pyruvate, 20 ng/ml bFGF, and 10 ng/ml TNF-α and 20 ng/ml FGF10; • Formulation 5: the Basal Medium was added with 10 nM β-estradiol, 1:100-fold diluted MEM-NEAA, 1 mM sodium pyruvate, 50 ng/ml IGF1, and 10 ng/ml TNF-α and FGF10 at 20 ng/ml; • Formulation 6: the Basal Medium was added with 10 nM β-estradiol, 1:100-fold diluted MEM-NEAA, 1 mM sodium pyruvate, 50 ng/ml IGF1, 20 ng/ml bFGF and 20 ng/ml FGF10; • Formulation 7: the Basal Medium was added with 10 nM β-estradiol, 1:100-fold diluted MEM-NEAA, 1 mM sodium pyruvate, 50 ng/ml IGF1, 20 ng/ml bFGF and 10 ng/ml of TNF-α.
Subsequently, β-estradiol (Sigma) was added to Formulation 1 to prepare culture mediums for human mammary epithelial cells containing β-estradiol at final concentrations of 5 nM, 10 nM, 50 nM, and 100 nM, and each culture medium was added to a 96-well plate coated with Matrigel at a volume of 100 μl/well, with 3 replicates for each concentration. The primary breast cancer cells (2 #) isolated from breast tumor tissue in Example (1) were seeded in a Matrigel-coated 96-well culture plate at a density of 500 cells/well and cultured in Formulation 1 containing different concentrations of β-estradiol at 37° C. and 5% CO2. The culture medium was replaced every 3 days after the start of culture. On the 14th day of culture, the cells were counted. Formulation 1 was used as an experimental control, i.e., the content of β-estradiol was 0 nM.
Non-essential amino acids (MEM-NEAA) additive (Thermo Fisher) was added to Formulation 2 at a dilution ratio of 1:200, 1:100, 1:50, and 1:20 to prepare culture mediums for human mammary epithelial cells containing different concentrations of non-essential amino acids. The culture mediums of different formulations were added to a 96-well plate coated with Matrigel at a volume of 100 μl/well, with 3 replicates for each concentration. Primary cells were cultured and counted in the same manner as above. As an experimental control, Formulation 2 was used, i.e., the content of non-essential amino acids was 0.
Similarly, sodium pyruvate (Thermo Fisher) was added to Formulation 3 to prepare culture mediums for human mammary epithelial cells containing sodium pyruvate at final concentrations of 0.5 mM, 1 mM, 2 mM, and 4 mM. […] Primary cells were cultured and counted in the same manner as above. […]
Then, insulin-like growth factor 1 (IGF1, manufactured by R&D) was added to formulation 4 to prepare culture mediums for human mammary epithelial cells containing IGF1 at final concentrations of 10 ng/ml, 20 ng/ml, 50 ng/ml, 100 ng/ml, and 200 ng/ml, and the culture mediums containing different concentrations of IGF1 were added to a 96-well plate coated with Matrigel at a volume of 100 μl/well, with 3 replicates for each concentration. Primary cells were cultured and counted in the same manner as above. […]

breast tumor cells (5 #) = experiment: In vitro drug sensitivity test, Cell Titer-Glo cell viability; conditions: 72 hours after drug administration, 1:3 dilution series from 2 times Cmax
Experimental: I. Plating of primary breast cancer cells: using the culture medium of the invention in section (5) of Example 1, breast tumor cells (5 #) were cultured by the method described in section (1) of Example 2, and the cells were inoculated in a 384-well plate at a density of 3000 to 5000 cells/well, and the cells were subjected to adherent culture overnight.
(1) The drug storage plate was prepared by the concentration gradient dilution method: 10 μL of the drug stock solutions to be tested (the concentration of the drug stock solution was prepared at 2 times the maximum plasma concentration Cmax of the drug in the human body) were respectively taken and added to a 0.5 mL EP tube containing 20 μL of DMSO, and then 10 μL was aspirated from the above EP tube into a second 0.5 mL EP tube containing 20 μL of DMSO, that is, the drug was diluted 1:3. The above process was repeated for gradually dilution until 8 or 9 concentrations required for dosing were obtained. Different concentrations of drugs were added to the 384-well drug storage plate. Equal volume of DMSO was added to each well of the solvent control group as a control. In this example, the drugs to be tested are clinically approved anti-tumor drugs, docetaxel (MCE), palbociclib (MCE), dovitinib (MCE), capecitabine (MCE), crizotinib (MCE) and etoposide (MCE).
(2) Using a high-throughput automated workstation (purchased from Perkin Elmer), different concentrations of drugs and solvent controls in the 384-well drug storage plates were added to the 384-well cell culture plates plated with the breast tumor cells. Both the drug groups and the solvent control groups were set up with 3 replicate wells. The volume of drug added to each well was 100 nL.
(3) Cell activity detection: 72 hours after drug administration, Cell Titer-Glo assay kit (manufactured by Promega) was used to detect the chemiluminescence value of the cultured cells after drug administration. The magnitude of the chemiluminescence value reflects the cell viability and the effect of the drug on the cell viability. The prepared Cell Titer-Glo detection solution was added to each well, and a microplate reader was used to detect the chemiluminescence value after mixing.
Graphpad Prism 7.0 software was used to draw graphs and calculate the median inhibition concentration IC50.

Row | Molecule | Level of promoting proliferation [1] | promotion of growth of primary breast tumor cells (in words) [1] | effect on in vitro proliferation of primary breast cancer cells (in words) [2] | sensitivity of breast cancer cells to drug (in words) (breast tumor cells (5 #))
1 | CC(=O)C(=O)[O-].[Na+] [sodium pyruvate] | ∘ | – | – | –
2 | basic fibroblast growth factor | ++ | stronger | obvious proliferative effects | –
3 | C[C@]12CC[C@@H]3c4ccc(O)cc4CC[C@H]3[C@@H]1CC[C@@H]2O [β-estradiol] | ∘ | – | obvious proliferative effects | –
4 | insulin-like growth factor 1 | + | promote the growth | obvious proliferative effects | –
5 | tumor necrosis factor α | ++ | stronger | obvious proliferative effects | –
6 | CCCCCOC(=O)Nc1nc(=O)n([C@@H]2O[C@H](C)[C@@H](O)[C@H]2O)cc1F [capecitabine] | – | – | – | less sensitive
7 | C[C@@H](Oc1cc(-c2cnn(C3CCNCC3)c2)cnc1N)c1c(Cl)ccc(F)c1Cl [crizotinib] | – | – | – | less sensitive
8 | COc1cc([C@@H]2c3cc4c(cc3[C@@H](O[C@@H]3O[C@@H]5CO[C@@H](C)O[C@H]5[C@H](O)[C@H]3O)[C@H]3COC(=O)[C@H]23)OCO4)cc(OC)c1O [etoposide] | – | – | – | more sensitive
9 | CC(=O)O[C@@]12CO[C@@H]1C[C@H](O)[C@@]1(C)C(=O)[C@H](O)C3=C(C)[C@@H](OC(=O)[C@H](O)[C@@H](NC(=O)OC(C)(C)C)c4ccccc4)C[C@@](O)([C@@H](OC(=O)c4ccccc4)[C@H]21)C3(C)C [docetaxel] | – | – | – | more sensitive
10 | fibroblast growth factor 10 (protein, UniProt O15520 38-208, looked up, growth factor used as culture medium additive) Fibroblast growth factor 10: QALGQDMVSPEATNSSSSSFSSPSSAGRHVRSYNHLQGDVRWRKLFSFTKYFLKIEKNGKVSGTKKENCPYSILEITSVEIGVVAVKAINSNYYLAMNKKGKLYGSKEFNNDCKLKERIEENGYNTYASFNWQHNGRQMYVALNGKGAPRRGQKTRRKNTSAHFLPMVVHS | + | promote the growth | dose-dependent pro-proliferation effect | –
